Measured values published in US5385941A, “Salts/ion pairs of non-steroidal anti-inflammatory drugs in various dosage forms” (Warner-Lambert Company, priority 1993, dated 1995).
≈ marks a conversion by molar mass, not a printed value.

Experiment: physchem
Details: water

Cc1ccc(Cl)c(Nc2ccccc2C(=O)O)c1Cl [MA, Meclofenamic acid]
solubility: 30 µg/mL (≈ 101 µM)
